Test results reported in article PMC10673308, “Unusual Oligomeric Laccase-like Oxidases from Ascomycete Curvularia geniculata VKM F-3561 Polymerizing Phenylpropanoids and Phenolic Compounds under Neutral Environmental Conditions” (Microorganisms, 2023).

Experiments:
[1] = system: T1, oxidase II (laccase-like oxidase II of C. geniculata VKM F-3561); test: spectrophotometric oxidation assay; format: biochemical, Curvularia geniculata; conditions: apparent, error < 10%
T1 construct: native, purified from culture liquid; glycosylated oligomer about 870 kDa, subunit about 63 kDa deglycosylated
Text: spectrophotometric oxidation assay on oxidase II (laccase-like oxidase II of C. geniculata VKM F-3561)

[2] = system: T2, oxidase I (laccase-like oxidase I of C. geniculata VKM F-3561); test: spectrophotometric oxidation assay; format: biochemical, Curvularia geniculata; conditions: apparent, error < 10%
T2 construct: native, purified from culture liquid; glycosylated oligomer about 1035 kDa, subunit about 63 kDa deglycosylated
Text: spectrophotometric oxidation assay on oxidase I (laccase-like oxidase I of C. geniculata VKM F-3561)

COc1cccc(OC)c1O [2,6-dimethoxyphenol]
Km ([1]; 50 mM Tris-HCl buffer pH 7.2): 108 µM | Km ([2]; 50 mM Tris-HCl buffer pH 7.2): 26 µM

CCn1c(=NN=c2sc3cc(S(=O)(=O)O)ccc3n2CC)sc2cc(S(=O)(=O)O)ccc21 [ABTS, 2,2′-azino-bis(3-ethylbenzothiazoline 6-sulfonic acid)]
Km ([1]; 20 mM Na-acetate buffer pH 5.0): 152 µM | Km ([2]; 20 mM Na-acetate buffer pH 5.0): 280 µM

COc1cc(/C=C/CO)ccc1O [coniferyl alcohol]
Km ([1]; 50 mM Tris-HCl buffer pH 7.2): 125 µM | Km ([2]; 50 mM Tris-HCl buffer pH 7.2): 130 µM

COc1cc(/C=C/C(=O)O)ccc1O [ferulic acid]
Km ([1]; 50 mM Tris-HCl buffer pH 7.2): 51 µM | Km ([2]; 50 mM Tris-HCl buffer pH 7.2): 37.6 µM

COc1cc(C=NN=Cc2cc(OC)c(O)c(OC)c2)cc(OC)c1O [syringaldazine, 4-hydroxy-3,5-dimethoxybenzaldehyde azine]
Km ([1]; 50 mM Tris-HCl buffer pH 7.2): 46 µM | Km ([2]; 50 mM Tris-HCl buffer pH 7.2): 2.3 µM
